Data taken from ChEMBL document CHEMBL2311520, “Total synthesis of AMF-26, an antitumor agent for inhibition of the Golgi system, targeting ADP-ribosylation factor 1” (J Med Chem, 2013).
The source made the active and inactive calls. The rule behind the calls is not given here.

Legend:
OVCAR-8 = test: Growth inhibition of human OVCAR8 cells after 48 hrs by Sulforhodamine B assay; format: functional; details: OVCAR-8, 48 h
PC-3 = test: Growth inhibition of human PC3 cells after 48 hrs by Sulforhodamine B assay; format: functional; details: PC-3, 48 h
NCI-H460 = test: Growth inhibition of human NCI-H460 cells after 48 hrs by Sulforhodamine B assay; format: functional; details: NCI-H460, 48 h
OVCAR-5 = test: Growth inhibition of human OVCAR5 cells after 48 hrs by Sulforhodamine B assay; format: functional; details: OVCAR-5, 48 h
DU-145 = test: Growth inhibition of human DU145 cells after 48 hrs by Sulforhodamine B assay; format: functional; details: DU-145, 48 h
DMS-114 = test: Growth inhibition of human DMS114 cells after 48 hrs by Sulforhodamine B assay; format: functional; details: DMS-114, 48 h
HCT-15 = test: Growth inhibition of human HCT15 cells after 48 hrs by Sulforhodamine B assay; format: functional; details: HCT-15, 48 h
[1] = Growth inhibition of human BSY1 cells after 48 hrs by Sulforhodamine B assay; format: functional; details: BSY-1, 48 h
MKN-45 = test: Growth inhibition of human MKN45 cells after 48 hrs by Sulforhodamine B assay; format: functional; details: MKN-45, 48 h
A549 = test: Growth inhibition of human A549 cells after 48 hrs by Sulforhodamine B assay; format: functional; details: A549, 48 h
[2] = Growth inhibition of human HBC4 cells after 48 hrs by Sulforhodamine B assay; format: functional; details: read-out: logGI50 (converted)
[3] = Growth inhibition of human RXF631L cells after 48 hrs by Sulforhodamine B assay; format: functional; details: RXF 631, 48 h
KM12 = test: Growth inhibition of human KM12 cells after 48 hrs by Sulforhodamine B assay; format: functional; details: KM12, 48 h
DMS-273 = test: Growth inhibition of human DMS273 cells after 48 hrs by Sulforhodamine B assay; format: functional; details: DMS-273, 48 h
MCF7 = test: Growth inhibition of human MCF7 cells after 48 hrs by Sulforhodamine B assay; format: functional; details: MCF7, 48 h
SF-539 = test: Growth inhibition of human SF539 cells after 48 hrs by Sulforhodamine B assay; format: functional; details: SF-539, 48 h
St-4 = test: Growth inhibition of human St-4 cells after 48 hrs by Sulforhodamine B assay; format: functional; details: St-4, 48 h
SK-OV-3 = test: Growth inhibition of human SKOV3 cells after 48 hrs by Sulforhodamine B assay; format: functional; details: SK-OV-3, 48 h
OVCAR-3 = test: Growth inhibition of human OVCAR3 cells after 48 hrs by Sulforhodamine B assay; format: functional; details: OVCAR-3, 48 h
MKN-7 = test: Growth inhibition of human MKN7 cells after 48 hrs by Sulforhodamine B assay; format: functional; details: MKN-7, 48 h
SNB-78 = test: Growth inhibition of human SNB-78 cells after 48 hrs by Sulforhodamine B assay; format: functional; details: SNB-78, 48 h
NCI-H23 = test: Growth inhibition of human NCI-H23 cells after 48 hrs by Sulforhodamine B assay; format: functional; details: NCI-H23, 48 h
MKN-74 = test: Growth inhibition of human MKN74 cells after 48 hrs by Sulforhodamine B assay; format: functional; details: MKN-74, 48 h
HCT-116 = test: Growth inhibition of human HCT116 cells after 48 hrs by Sulforhodamine B assay; format: functional; details: HCT-116, 48 h
MKN-28 = test: Growth inhibition of human MKN28 cells after 48 hrs by Sulforhodamine B assay; format: functional; details: MKN-28, 48 h
OVCAR-4 = test: Growth inhibition of human OVCAR4 cells after 48 hrs by Sulforhodamine B assay; format: functional; details: OVCAR-4, 48 h
SF-295 = test: Growth inhibition of human SF295 cells after 48 hrs by Sulforhodamine B assay; format: functional; details: SF-295, 48 h
[4] = Growth inhibition of human MKN1 cells after 48 hrs by Sulforhodamine B assay; format: functional; details: MKN-1, 48 h
ACHN = test: Growth inhibition of human ACHN cells after 48 hrs by Sulforhodamine B assay; format: functional
[5] = Growth inhibition of human HCC2998 cells after 48 hrs by Sulforhodamine B assay; format: functional; details: HCC 2998, 48 h
SNB-75 = test: Growth inhibition of human SNB75 cells after 48 hrs by Sulforhodamine B assay; format: functional; details: SNB-75, 48 h
U-251 = test: Growth inhibition of human U251 cells after 48 hrs by Sulforhodamine B assay; format: functional; details: U-251, 48 h
HT-29 = test: Growth inhibition of human HT-29 cells after 48 hrs by Sulforhodamine B assay; format: functional; details: HT-29, 48 h
NCI-H522 = test: Growth inhibition of human NCI-H522 cells after 48 hrs by Sulforhodamine B assay; format: functional; details: NCI-H522, 48 h
NCI-H226 = test: Growth inhibition of human NCI-H226 cells after 48 hrs by Sulforhodamine B assay; format: functional; details: NCI-H226, 48 h
SF-268 = test: Growth inhibition of human SF268 cells after 48 hrs by Sulforhodamine B assay; format: functional; details: SF-268, 48 h
LOX IMVI = test: Growth inhibition of human LOXIMVI cells after 48 hrs by Sulforhodamine B assay; format: functional
MDA-MB-231 = test: Growth inhibition of human MDA-MB-231 cells after 48 hrs by Sulforhodamine B assay; format: functional; details: MDA-MB-231, 48 h
[6] = Growth inhibition of human HBC5 cells after 48 hrs by Sulforhodamine B assay; format: functional; details: HBC5, 48 h
HBC4 = test: Induction of golgi disassembly in human HBC4 cells assessed as presence of GBF1 in cytoplasm at 1 to 100 nM after 1 hr by immunofluorescence microscopy; format: functional, cell-based
BSY-1 = test: Induction of golgi disassembly in human BSY1 cells assessed as presence of GBF1 in cytoplasm at 1 to 100 nM after 1 hr by immunofluorescence microscopy; format: functional, cell-based

Compound `C/C(=C\C=C\[C@@H]1[C@H]2[C@H](C)[C@@H](O)[C@H](C)C[C@@H]2C=C[C@@H]1C)C(=O)NCc1cccnc1` (stereo in doubt; form 1) has a GI50 (OVCAR-8; read-out: logGI50 (converted)) of 39.8 nM, a GI50 (PC-3; read-out: logGI50 (converted)) of 45.7 nM and a GI50 (NCI-H460; read-out: logGI50 (converted)) of 91.2 nM. It also gave a GI50 (OVCAR-5; read-out: logGI50 (converted)) of 38.9 nM, a GI50 (DU-145; read-out: logGI50 (converted)) of 245 nM and a GI50 (DMS-114; read-out: logGI50 (converted)) of 39.8 nM. For the same compound, the GI50 (HCT-15; read-out: logGI50 (converted)) was 70.8 nM, the GI50 ([1]; read-out: logGI50 (converted)) was 12.6 nM and the GI50 (MKN-45; read-out: logGI50 (converted)) was 31.6 nM. For the same compound, the GI50 (A549; read-out: logGI50 (converted)) was 57.5 nM, the GI50 [2] was 41.7 nM and the GI50 ([3]; read-out: logGI50 (converted)) was 53.7 nM. It also gave a GI50 (KM12; read-out: logGI50 (converted)) of 35.5 nM, a GI50 (DMS-273; read-out: logGI50 (converted)) of 53.7 nM and a GI50 (MCF7; read-out: logGI50 (converted)) of 42.7 nM. It also gave a GI50 (SF-539; read-out: logGI50 (converted)) of 52.5 nM, a GI50 (St-4; read-out: logGI50 (converted)) of 195 nM and a GI50 (SK-OV-3; read-out: logGI50 (converted)) of 41.7 nM. The GI50 (OVCAR-3; read-out: logGI50 (converted)) was 33.1 nM, the GI50 (MKN-7; read-out: logGI50 (converted)) was 50.1 nM and the GI50 (SNB-78; read-out: logGI50 (converted)) was 51.3 nM. It also gave a GI50 (NCI-H23; read-out: logGI50 (converted)) of 53.7 nM, a GI50 (MKN-74; read-out: logGI50 (converted)) of 56.2 nM and a GI50 (HCT-116; read-out: logGI50 (converted)) of 40.7 nM. It also gave a GI50 (MKN-28; read-out: logGI50 (converted)) of 79.4 nM, a GI50 (OVCAR-4; read-out: logGI50 (converted)) of 31.6 nM and a GI50 (SF-295; read-out: logGI50 (converted)) of 58.9 nM. For the same compound, the GI50 ([4]; read-out: logGI50 (converted)) was 30.2 nM, the GI50 (ACHN; read-out: logGI50 (converted)) was 47.9 nM and the GI50 ([5]; read-out: logGI50 (converted)) was 39.8 nM. The GI50 (SNB-75; read-out: logGI50 (converted)) was 23.4 nM, the GI50 (U-251; read-out: logGI50 (converted)) was 58.9 nM and the GI50 (HT-29; read-out: logGI50 (converted)) was 33.9 nM. The GI50 (NCI-H522; read-out: logGI50 (converted)) was 123 nM, the GI50 (NCI-H226; read-out: logGI50 (converted)) was 23.4 nM and the GI50 (SF-268; read-out: logGI50 (converted)) was 44.7 nM. For the same compound, the GI50 (LOX IMVI; read-out: logGI50 (converted)) was 22.9 nM, the GI50 (MDA-MB-231; read-out: logGI50 (converted)) was 24 nM and the GI50 ([6]; read-out: logGI50 (converted)) was 34.7 nM.
For `C/C(=C\C=C\[C@@H]1[C@H]2[C@H](C)[C@@H](O)[C@H](C)C[C@@H]2C=C[C@@H]1C)C(=O)NCc1cccnc1` (stereo in doubt; form 2) [listing 1 of 2 here], the GI50 (OVCAR-8; read-out: GI50) was 37.2 nM, the GI50 (OVCAR-8; read-out: pGI50 (converted)) was 37.1 nM and the GI50 (PC-3; read-out: pGI50 (converted)) was 46.8 nM. The GI50 (NCI-H460; read-out: pGI50 (converted)) was 174 nM, the GI50 (OVCAR-5; read-out: pGI50 (converted)) was 41.7 nM and the GI50 (DU-145; read-out: pGI50 (converted)) was 219 nM. For the same compound, the GI50 (DMS-114; read-out: pGI50 (converted)) was 52.5 nM, the GI50 (HCT-15; read-out: pGI50 (converted)) was 126 nM and the GI50 ([1]; read-out: GI50) was 18.2 nM. For the same compound, the GI50 ([1]; read-out: pGI50 (converted)) was 18.2 nM, the GI50 (MKN-45; read-out: GI50) was 27.5 nM and the GI50 (MKN-45; read-out: pGI50 (converted)) was 27.5 nM. The GI50 (A549; read-out: pGI50 (converted)) was 51.3 nM, the GI50 ([2]; Homo sapiens, HBC4, 48 h) was 46.8 nM and the GI50 ([3]; read-out: pGI50 (converted)) was 112 nM. For the same compound, the GI50 (KM12; read-out: GI50) was 35.5 nM, the GI50 (KM12; read-out: pGI50 (converted)) was 35.5 nM and the GI50 (DMS-273; read-out: pGI50 (converted)) was 79.4 nM. For the same compound, the GI50 (MCF7; read-out: pGI50 (converted)) was 47.9 nM, the GI50 (SF-539; read-out: pGI50 (converted)) was 58.9 nM and the GI50 (St-4; read-out: pGI50 (converted)) was 214 nM. It also gave a GI50 (SK-OV-3; read-out: pGI50 (converted)) of 44.7 nM, a GI50 (OVCAR-3; read-out: pGI50 (converted)) of 46.8 nM and a GI50 (MKN-7; read-out: pGI50 (converted)) of 66.1 nM. The GI50 (SNB-78; read-out: pGI50 (converted)) was 58.9 nM, the GI50 (NCI-H23; read-out: pGI50 (converted)) was 60.3 nM and the GI50 (MKN-74; read-out: pGI50 (converted)) was 81.3 nM. For the same compound, the GI50 (HCT-116; read-out: pGI50 (converted)) was 74.1 nM, the GI50 (MKN-28; read-out: pGI50 (converted)) was 83.2 nM and the GI50 (OVCAR-4; read-out: GI50) was 34.7 nM. The GI50 (OVCAR-4; read-out: pGI50 (converted)) was 34.7 nM, the GI50 (SF-295; read-out: pGI50 (converted)) was 100 nM and the GI50 ([4]; read-out: GI50) was 36.3 nM. It also gave a GI50 ([4]; read-out: pGI50 (converted)) of 36.3 nM, a GI50 (ACHN; read-out: pGI50 (converted)) of 81.3 nM and a GI50 ([5]; read-out: pGI50 (converted)) of 47.9 nM. The GI50 (SNB-75; read-out: GI50) was 30.2 nM, the GI50 (SNB-75; read-out: pGI50 (converted)) was 30.2 nM and the GI50 (U-251; read-out: pGI50 (converted)) was 70.8 nM. It also gave a GI50 (HT-29; read-out: GI50) of 33.9 nM, a GI50 (HT-29; read-out: pGI50 (converted)) of 33.9 nM and a GI50 (NCI-H522; read-out: pGI50 (converted)) of 191 nM. It also gave a GI50 (NCI-H226; read-out: GI50) of 30.9 nM, a GI50 (NCI-H226; read-out: pGI50 (converted)) of 30.9 nM and a GI50 (SF-268; read-out: pGI50 (converted)) of 51.3 nM. It also gave a GI50 (LOX IMVI; read-out: GI50) of 33.1 nM, a GI50 (LOX IMVI; read-out: pGI50 (converted)) of 33.1 nM and a GI50 (MDA-MB-231; read-out: GI50) of 22.9 nM. It also gave a GI50 (MDA-MB-231; read-out: pGI50 (converted)) of 22.9 nM and a GI50 ([6]; read-out: pGI50 (converted)) of 41.7 nM.
With `C/C(=C\C=C\[C@@H]1[C@H]2[C@H](C)[C@@H](O)[C@H](C)C[C@@H]2C=C[C@@H]1C)C(=O)NCc1cccnc1` (stereo in doubt; form 2) [listing 2 of 2 here] the Activity (HBC4) was “Active” and the Activity (BSY-1) was “Active”.
